Results: ChEMBL document CHEMBL1165932, “Inhibition of Mycobacterium tuberculosis tyrosine phosphatase PtpA by synthetic chalcones: kinetics, molecular modeling, toxicity and effect on growth” (Bioorg Med Chem, 2010)

What was measured:
[1] = system: Mycobacterium tuberculosis; experiment: Antibacterial activity against Mycobacterium bovis BCG infected in human THP1 cells assessed as viral infection at 20 uM after 48 hrs relative to control; type: functional, variant bovis BCG, THP-1
[2] = system: Mycobacterium tuberculosis; experiment: Antibacterial activity against Mycobacterium bovis BCG infected in human THP1 cells assessed as viral infection at 10 uM after 24 hrs relative to control; type: functional, variant bovis BCG, THP-1

SMILES	Activity [1] [%]	Activity [2] [%]
COc1ccc(C(=O)/C=C/c2ccc3ccccc3c2)cc1OC	32.9	63.8
COc1cc(C(=O)/C=C/c2ccc3ccccc3c2)ccc1O	8.5	72.9
O=C(/C=C/c1cccc2ccccc12)c1ccccc1O	71.3	180.8
COc1ccc(OC)c(C(=O)/C=C/c2ccc3ccccc3c2)c1	234.9	117.7
COc1ccc(OC)c(C(=O)/C=C/c2cccc3ccccc23)c1	46.3	108.6
